# From PMC10343299, “S-Ethyl-Isothiocitrullin-Based Dipeptides and 1,2,4-Oxadiazole Pseudo-Dipeptides: Solid Phase Synthesis and Evaluation as NO Synthase Inhibitors” (Molecules, 2023)
# Where two headings read alike, the source gives them in different places.
# How the values were obtained:
# [1] = target: T1, bovine eNOS (Bos taurus, UniProt P29473); experiment: NOS inhibition, oxyhemoglobin (hemoglobin capture) test, recombinant eNOS; assay type: biochemical; details: recombinant enzyme, 10 µM arginine, triplicate, NI = <50% inhibition at 100 μM, read-out: IC50 (μM) eNOS (Bovine)
# T1 construct: Full-length recombinant rat nNOS, mouse iNOS, bovine eNOS; made in house; host or cells: Escherichia coli
# T1 sequence (P29473 whole entry): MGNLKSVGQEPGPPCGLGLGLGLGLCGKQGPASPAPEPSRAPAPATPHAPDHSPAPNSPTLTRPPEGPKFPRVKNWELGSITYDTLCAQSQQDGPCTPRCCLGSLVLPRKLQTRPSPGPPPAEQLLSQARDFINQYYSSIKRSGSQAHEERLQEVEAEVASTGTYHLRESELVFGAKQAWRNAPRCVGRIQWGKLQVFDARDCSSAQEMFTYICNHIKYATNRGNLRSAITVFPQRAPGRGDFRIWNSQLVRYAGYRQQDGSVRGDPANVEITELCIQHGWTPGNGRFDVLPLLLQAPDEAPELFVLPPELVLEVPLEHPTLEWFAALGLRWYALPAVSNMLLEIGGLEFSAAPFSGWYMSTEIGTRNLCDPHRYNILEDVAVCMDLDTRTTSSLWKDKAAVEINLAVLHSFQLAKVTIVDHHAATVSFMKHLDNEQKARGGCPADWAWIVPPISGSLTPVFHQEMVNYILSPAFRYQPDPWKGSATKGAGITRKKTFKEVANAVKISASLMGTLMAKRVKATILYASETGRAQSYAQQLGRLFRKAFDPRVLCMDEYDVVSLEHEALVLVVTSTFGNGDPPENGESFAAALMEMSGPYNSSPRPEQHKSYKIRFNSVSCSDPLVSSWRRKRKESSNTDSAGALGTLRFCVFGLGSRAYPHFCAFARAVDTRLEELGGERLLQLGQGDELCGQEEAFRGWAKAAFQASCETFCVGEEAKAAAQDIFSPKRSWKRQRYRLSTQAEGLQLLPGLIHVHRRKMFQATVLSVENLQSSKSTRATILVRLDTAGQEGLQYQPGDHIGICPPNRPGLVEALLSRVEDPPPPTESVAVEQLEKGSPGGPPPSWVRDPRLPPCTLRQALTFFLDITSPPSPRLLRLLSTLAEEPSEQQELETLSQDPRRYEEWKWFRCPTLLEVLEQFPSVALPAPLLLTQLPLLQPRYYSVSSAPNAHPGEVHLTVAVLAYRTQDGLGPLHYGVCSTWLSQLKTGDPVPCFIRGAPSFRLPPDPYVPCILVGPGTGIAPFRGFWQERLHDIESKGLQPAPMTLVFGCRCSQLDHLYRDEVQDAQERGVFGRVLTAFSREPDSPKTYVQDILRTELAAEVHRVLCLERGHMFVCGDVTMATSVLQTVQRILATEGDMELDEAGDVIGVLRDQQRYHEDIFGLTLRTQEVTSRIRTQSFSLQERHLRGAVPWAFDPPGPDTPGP
# [2] = target: T2, mouse iNOS (Mus musculus, UniProt P29477); experiment: NOS inhibition, oxyhemoglobin (hemoglobin capture) test, recombinant iNOS; assay type: biochemical; details: recombinant enzyme, 20 µM arginine, triplicate, NI = <50% inhibition at 100 μM
# T2 construct: Full-length recombinant rat nNOS, mouse iNOS, bovine eNOS; made in house; host or cells: Escherichia coli
# T2 sequence (P29477 1-1144): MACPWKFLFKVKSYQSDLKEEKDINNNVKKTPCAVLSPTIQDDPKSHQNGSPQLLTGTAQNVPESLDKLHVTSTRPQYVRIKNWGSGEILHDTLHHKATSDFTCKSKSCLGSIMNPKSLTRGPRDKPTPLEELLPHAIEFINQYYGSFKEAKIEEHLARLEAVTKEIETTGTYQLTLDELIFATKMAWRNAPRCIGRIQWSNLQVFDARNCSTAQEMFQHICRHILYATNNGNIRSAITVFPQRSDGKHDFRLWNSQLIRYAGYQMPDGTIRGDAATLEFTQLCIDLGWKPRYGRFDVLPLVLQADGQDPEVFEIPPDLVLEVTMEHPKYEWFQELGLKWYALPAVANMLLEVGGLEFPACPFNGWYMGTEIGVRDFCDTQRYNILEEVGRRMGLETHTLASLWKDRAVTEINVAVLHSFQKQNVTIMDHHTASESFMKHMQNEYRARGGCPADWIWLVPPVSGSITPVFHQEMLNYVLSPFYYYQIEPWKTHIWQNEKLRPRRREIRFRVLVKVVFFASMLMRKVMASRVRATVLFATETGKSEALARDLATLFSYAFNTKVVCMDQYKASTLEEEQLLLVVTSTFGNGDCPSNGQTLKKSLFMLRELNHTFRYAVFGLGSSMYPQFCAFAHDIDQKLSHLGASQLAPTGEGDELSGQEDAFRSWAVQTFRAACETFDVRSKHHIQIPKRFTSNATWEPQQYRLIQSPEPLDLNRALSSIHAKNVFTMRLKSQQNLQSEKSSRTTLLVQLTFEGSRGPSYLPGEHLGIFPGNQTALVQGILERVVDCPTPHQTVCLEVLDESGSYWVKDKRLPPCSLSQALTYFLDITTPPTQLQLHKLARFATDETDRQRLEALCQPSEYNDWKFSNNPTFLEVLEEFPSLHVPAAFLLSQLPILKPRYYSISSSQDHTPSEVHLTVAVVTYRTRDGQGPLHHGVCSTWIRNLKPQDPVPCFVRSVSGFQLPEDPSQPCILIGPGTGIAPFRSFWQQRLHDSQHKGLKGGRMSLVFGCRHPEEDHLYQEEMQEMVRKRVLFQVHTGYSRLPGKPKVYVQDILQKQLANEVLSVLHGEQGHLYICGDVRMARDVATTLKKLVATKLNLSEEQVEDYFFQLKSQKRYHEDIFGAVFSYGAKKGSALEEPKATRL
# Method: (§1) The inhibitory effects of all compounds against the three recombinant NOSs (rat nNOS, mouse iNOS, and bovine eNOS) were evaluated in 96-well plates using the oxyhemoglobin test. A first screening at 100 and 10 μM was performed, and the IC50 values were measured for compounds showing more than 50% inhibition at 100 μM (Table 1 and Table 2).
# (§2) Full-length recombinant rat nNOS, mouse iNOS, bovine eNOS, and the heme domains of rat brain nNOS and mouse iNOS were expressed in Escherichia coli and purified as described previously.
# (§3) NOS catalytic activity was measured using the hemoglobin capture assay. The test was performed at 30 °C in 96-well microplates using a final volume of 200 µL. The assay mixture contained 100 µM NADPH, 10 µM BH4, 6 µM HbO2, 100 µM DTT, 5 µM FAD, 5 µM FMN, 10 µM (nNOS and eNOS), or 20 µM (iNOS) arginine, all in a 100 mM Hepes buffer, pH 7.5, and, for constitutive n- and e-NOS, 10 µg/mL calmodulin, and 1 mM CaCl2. The studied compounds were introduced as 2 μL of ×100 concentrated solutions in DMSO, and the control experiments were performed with DMSO or the buffer only. The kinetics of NO production were measured at 401 nm using an Infinite F500 microplate reader (Tecan, Singapore).
# [3] = test system: mouse iNOS; experiment: as above; assay type: biochemical; details: from IC50 values
# Method: as §1, §2, §3
# [4] = target: T3, rat nNOS (Rattus norvegicus, UniProt P29476); experiment: NOS inhibition, oxyhemoglobin (hemoglobin capture) test, recombinant nNOS; assay type: biochemical; details: recombinant enzyme, 10 µM arginine, triplicate, NI = <50% inhibition at 100 μM
# T3 construct: Full-length recombinant rat nNOS, mouse iNOS, bovine eNOS; made in house; host or cells: Escherichia coli
# T3 sequence (P29476 whole entry): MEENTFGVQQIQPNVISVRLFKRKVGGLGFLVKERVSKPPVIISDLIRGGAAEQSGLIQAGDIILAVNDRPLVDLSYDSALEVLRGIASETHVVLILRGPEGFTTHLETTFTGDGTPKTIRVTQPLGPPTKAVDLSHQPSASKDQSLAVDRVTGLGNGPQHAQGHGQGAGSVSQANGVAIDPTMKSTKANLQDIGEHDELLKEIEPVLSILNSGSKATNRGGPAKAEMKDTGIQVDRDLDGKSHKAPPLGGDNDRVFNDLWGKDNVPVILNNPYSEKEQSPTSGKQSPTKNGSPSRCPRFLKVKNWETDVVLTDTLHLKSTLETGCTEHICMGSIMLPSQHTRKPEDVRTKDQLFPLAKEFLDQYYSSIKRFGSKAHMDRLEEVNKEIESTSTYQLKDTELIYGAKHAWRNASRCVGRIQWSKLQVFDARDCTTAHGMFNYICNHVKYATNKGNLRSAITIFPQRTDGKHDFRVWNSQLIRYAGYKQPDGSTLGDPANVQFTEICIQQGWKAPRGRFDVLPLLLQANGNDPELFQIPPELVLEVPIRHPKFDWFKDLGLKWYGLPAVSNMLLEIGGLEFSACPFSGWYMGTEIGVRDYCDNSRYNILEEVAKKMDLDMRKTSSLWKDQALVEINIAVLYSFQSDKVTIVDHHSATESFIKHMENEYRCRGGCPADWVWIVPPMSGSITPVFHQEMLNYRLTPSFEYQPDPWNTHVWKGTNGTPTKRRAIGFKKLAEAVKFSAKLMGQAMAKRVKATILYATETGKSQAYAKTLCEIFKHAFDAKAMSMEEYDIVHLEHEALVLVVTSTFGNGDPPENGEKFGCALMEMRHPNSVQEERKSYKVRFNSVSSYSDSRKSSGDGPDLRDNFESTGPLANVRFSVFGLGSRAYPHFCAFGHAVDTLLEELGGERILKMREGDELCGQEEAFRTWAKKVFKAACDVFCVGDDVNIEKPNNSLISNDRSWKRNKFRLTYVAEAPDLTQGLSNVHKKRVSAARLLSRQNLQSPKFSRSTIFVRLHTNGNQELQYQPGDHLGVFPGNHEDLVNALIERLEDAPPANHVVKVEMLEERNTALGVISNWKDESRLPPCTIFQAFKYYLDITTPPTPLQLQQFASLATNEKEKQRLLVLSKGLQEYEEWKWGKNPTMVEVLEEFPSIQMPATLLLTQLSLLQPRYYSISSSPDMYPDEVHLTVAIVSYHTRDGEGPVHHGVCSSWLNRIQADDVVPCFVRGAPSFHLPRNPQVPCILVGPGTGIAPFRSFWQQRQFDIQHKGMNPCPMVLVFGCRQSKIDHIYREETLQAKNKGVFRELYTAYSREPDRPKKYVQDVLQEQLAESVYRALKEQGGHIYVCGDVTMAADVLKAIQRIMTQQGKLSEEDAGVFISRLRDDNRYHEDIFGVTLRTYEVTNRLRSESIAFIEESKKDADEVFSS
# Method: as §1, §2, §3
# [5] = test system: nNOS; design: method as in PMID 32027778; details: Figure 1; previously described compounds; cited from earlier work
# [6] = test system: eNOS; design: method as in PMID 32027778; details: Figure 1; previously described compounds; cited from earlier work
# [7] = test system: iNOS; design: method as in PMID 32027778; details: Figure 1; previously described compounds; cited from earlier work
# [8] = target: eNOS; design: method as in PMID 14718923; details: read-out: Experimental Ki eNOS; cited from earlier work
# [9] = test system: nNOS; design: method as in PMID 14718923; details: cited from earlier work
# [10] = test system: RAW 264.7 cells; design: method as in PMID 32027778; details: RAW 264.7, LPS; cited from earlier work
# [11] = target: T4, oxygenase domain of iNOS (iNOSoxy) (Mus musculus, UniProt P29477); experiment: UV-visible difference spectroscopy titration of iNOSoxy; assay type: binding; details: UV/Vis difference spectroscopy, ± SD, three experiments; read-out: Apparent equilibrium constant Ks iNOSoxy
# T4 construct: the oxygenase domain of nNOS (nNOSoxy) and iNOS (iNOSoxy); made in house; host or cells: Escherichia coli
# T4 sequence (P29477 1-498 limits assumed): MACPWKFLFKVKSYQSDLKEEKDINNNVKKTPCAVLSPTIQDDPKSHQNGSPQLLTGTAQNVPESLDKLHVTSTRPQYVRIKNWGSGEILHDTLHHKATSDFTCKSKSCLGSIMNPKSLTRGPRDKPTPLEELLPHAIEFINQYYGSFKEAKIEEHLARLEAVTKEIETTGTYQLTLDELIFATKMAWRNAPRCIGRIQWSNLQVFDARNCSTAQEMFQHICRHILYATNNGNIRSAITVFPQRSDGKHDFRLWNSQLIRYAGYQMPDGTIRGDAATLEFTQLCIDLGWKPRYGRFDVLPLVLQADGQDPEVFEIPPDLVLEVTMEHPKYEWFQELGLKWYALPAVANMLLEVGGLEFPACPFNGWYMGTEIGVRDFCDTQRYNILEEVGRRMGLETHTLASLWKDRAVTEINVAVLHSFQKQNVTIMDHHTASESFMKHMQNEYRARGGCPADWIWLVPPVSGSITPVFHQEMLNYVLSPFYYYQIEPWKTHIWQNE
# Text: (§4) We performed UV–visible difference spectroscopy to analyze the interaction mode of some inhibitors with the heme-active site of NOS [54]. We have studied the effects of dipeptide-like compounds 7, 17, 19, 23, and 27 and 1,2,4-oxadiazole 35 on the UV–visible spectra of the oxygenase domain of nNOS (nNOSoxy) and iNOS (iNOSoxy). As expected, when added stepwise to n- and iNOSoxy, all selected compounds elicited different spectra with a trough at ~425 nm and a peak at ~395 nm, similar to the substrate L-arginine. This profile is characteristic of type I interactions, meaning that they are bound in close proximity to the heme prosthetic group and shifted the spin state equilibrium to the pentacoordinated heme–Fe^III state. Double reverse plotting of the differences in absorbance between the peak at ~395 nm and valley at ~425 nm (ΔA395–425 nm) as a function of the concentration of the added compounds allowed calculating apparent binding constants (Ks) (Table 3). The reference inhibitor SEITU [55] tightly bound both NOS isoforms with high affinity but no selectivity. With the exception of the dipeptide-like 27 and the heterocyclic analog 35, which similarly interacted with both proteins, other compounds preferentially bound nNOSoxy over iNOSoxy with apparent affinities close to SEITU for this isoform.
# as §2
# (§5) This study was performed as previously described.
# [12] = target: T5, oxygenase domain of nNOS (nNOSoxy) (Rattus norvegicus, UniProt P29476); experiment: UV-visible difference spectroscopy titration of nNOSoxy; assay type: binding; details: UV/Vis difference spectroscopy, ± SD, three experiments; read-out: Apparent equilibrium constant Ks nNOSoxy
# T5 construct: the oxygenase domain of nNOS (nNOSoxy) and iNOS (iNOSoxy); made in house; host or cells: Escherichia coli
# T5 sequence (P29476 1-720 limits assumed): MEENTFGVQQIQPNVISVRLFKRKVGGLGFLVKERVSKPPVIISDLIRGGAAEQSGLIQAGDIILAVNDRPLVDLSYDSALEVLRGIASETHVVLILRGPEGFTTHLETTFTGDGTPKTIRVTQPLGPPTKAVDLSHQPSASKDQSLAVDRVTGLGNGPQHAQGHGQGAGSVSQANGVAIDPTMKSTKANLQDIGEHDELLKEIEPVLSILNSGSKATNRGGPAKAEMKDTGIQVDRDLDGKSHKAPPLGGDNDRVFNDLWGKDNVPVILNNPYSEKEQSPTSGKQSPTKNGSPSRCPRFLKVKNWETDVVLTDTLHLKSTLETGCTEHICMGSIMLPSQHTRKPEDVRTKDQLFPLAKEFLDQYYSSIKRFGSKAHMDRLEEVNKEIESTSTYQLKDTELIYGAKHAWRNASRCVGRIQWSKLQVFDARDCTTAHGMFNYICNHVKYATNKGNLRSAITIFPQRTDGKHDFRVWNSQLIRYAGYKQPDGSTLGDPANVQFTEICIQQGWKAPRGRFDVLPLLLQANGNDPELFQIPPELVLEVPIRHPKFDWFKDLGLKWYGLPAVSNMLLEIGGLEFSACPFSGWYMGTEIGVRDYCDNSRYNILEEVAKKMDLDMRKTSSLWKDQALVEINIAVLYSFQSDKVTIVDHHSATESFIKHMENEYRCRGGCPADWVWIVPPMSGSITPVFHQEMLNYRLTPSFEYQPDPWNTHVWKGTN
# Text: as §4, §2, §5
# [13] = test system: RAW 264.7 cells; experiment: Cell viability, MTT assay; assay type: cell-based, murine
# Method: Cell viability was evaluated in the murine macrophage RAW 264.7 cells using an MTT assay for compounds 18, 21, 26, and 30. This experiment was performed without or with LPS (1 µg/mL), which induces iNOS expression (Figure S1). […] Compound 30 only killed 20% of the cells at 500 μM (Figure S1A). In the presence of LPS (1 µg/mL), cell viability was reduced by 30% due to the inhibition by NO of key enzymes involved in cell metabolism (Figure S1B).
# The macrophage cell line RAW 264.7 (a gift from Dr. A. Blangy, Montpellier, France) was cultured in Dulbecco’s Modified Eagle’s Medium (DMEM) supplemented with 10% FCS, 100 units/mL penicillin, 100 µg/mL streptomycin, and 2 mM L-glutamine.
# (§6) Cellular NO production was measured using the Griess reagent (Sigma-Aldrich), which evaluates the nitrite content in culture media. Cellular toxicity was estimated by the MTT assay (Sigma-Aldrich) in RAW 264.7 cells after the induction (or not) of iNOS by LPS, according to the manufacturer’s recommendations.
# [14] = target: T6, iNOS in RAW 264.7 cells (Mus musculus, UniProt P29477); experiment: Inhibition of NO production (nitrite, Griess) in LPS-stimulated cells; assay type: cell-based, murine; details: RAW264.7; RAW 264.7, LPS 1 µg/mL, 100 μM compound; read-out: Inhibition of intracellular NO production
# T6 construct: In RAW 264.7 cells, iNOS was induced by LPS (1 µg/mL, Sigma-Aldrich) for 24 h; endogenous in cells; host or cells: RAW 264.7 murine macrophages, LPS-induced
# Method: We evaluated the ability of selected compounds (dipeptides 7, 8, and 21 and 1,2,4-oxadiazoles 30 and 40) to inhibit iNOS in RAW 264.7 cells (Figure 2), where iNOS was induced by LPS (1 µg/mL). iNOS activity was measured following LPS induction by quantifying nitrite accumulation in the supernatant. […] A similar result was previously reported.
# In RAW 264.7 cells, iNOS was induced by LPS (1 µg/mL, Sigma-Aldrich) for 24 h. All studied compounds were incubated with cells during the last 24 h.
# as §6
compound,measurement,setting,value
CCSC(=N)NCCC[C@H](N)c1nc(CCN(Cc2ccccc2[N+](=O)[O-])Cc2ccccc2[N+](=O)[O-])no1 [Compound 40],inhibition at 100 µM,"[1]; 1,2,4-oxadiazole series",< 50%
same,IC50,"[2]; 1,2,4-oxadiazole series",2 µM
same,Selectivity for iNOS toward eNOS,[3],> 50 fold
same,Selectivity for iNOS toward nNOS,[3],30 fold
same,IC50,"[4]; 1,2,4-oxadiazole series",61 µM
CCSC(=N)NCCC[C@H](N)C(=O)NCCCN [JMV4246],IC50,[5],6.6 µM
same,IC50,[6],52 µM
same,IC50,[7],48 µM
"N=C(NCCC[C@H](N)C(=O)N1C[C@H](N)C[C@H]1C(N)=O)N[N+](=O)[O-] [DP9, L-Nω-nitroarginine-(4R)-amino-L-prolinamide]",Ki,[8],110 µM
same,Selectivity in favor of nNOS over eNOS,[9],1000 fold
same,Ki,[9]; read-out: Experimental Ki nNOS,0.1 µM
CCSC(=N)NCCC[C@H](N)c1nc(C)no1 [JMV3457],IC50,[5],9.4 µM
same,IC50,[6],45 µM
same,IC50,[7],19 µM
"CCSC(=N)N [SEITU, reference compound]",Reversal of LPS-induced reduction of cell viability,[10],partially reversed the LPS effect
same,Kd,[11],1.7 ± 0.1 µM
same,Kd,[12],6.4 ± 1.5 µM
CCSC(=N)NCCC[C@H](N)C(=O)N[C@H]1CCCN(Cc2cccc(Br)c2)C1 [Compound 21],inhibition at 100 µM,[1]; dipeptide-like series,< 50%
same,Reversal of LPS-induced reduction of cell viability,"[13]; RAW 264.7, LPS 1 µg/mL",none partially reversed the LPS effect
same,Effect on cell viability (MTT),"[13]; RAW 264.7, absence of LPS, up to 100 μM",did not modify cell viability
same,inhibition at 100 µM,[14],80%
same,IC50,[2]; dipeptide-like series,45.5 µM
same,IC50,[4]; dipeptide-like series,1 µM
CC(=N)NCCCC[C@H](N)C(=O)O [L-NIL],Reversal of LPS-induced reduction of cell viability,[10],partially reversed the LPS effect
